Test results from US10781188B2, “Contrast agents” (BRACCO IMAGING S.P.A., priority 2015, dated 2020).

What was measured:
[1] = Relaxivity r1p in human plasma, 37° C.; type: physicochemical; conditions: for r1p at 0.47 T 37° C., human plasma: 0.47 T (20 MHz); for r1p at 1.41 T 37° C., human plasma: 1.41 T (60 MHz)
Method: (§1) The relaxometric properties of some representative complex compounds according to the invention have been determined at different magnetic field strengths, e.g. including 0.47 and 1.41 T, at 37° C. and in different media (physiologic solution and human plasma) and compared with relaxivity values measured, at the same conditions, for some Gd-Complex of the market having an analogous cyclic coordination cage.
(§2) The longitudinal water proton relaxation rate (R1=1/T1) was measured at 0.47 T with a Minispec MQ-20 spectrometer (Bruker Biospin, Germany) operating at a proton Larmor frequency of 20 MHz; MR experiments at 1.41 T were performed using a Minispec MQ-60 spectrometer (Bruker Biospin, Germany) operating at a proton Larmor frequency of 60 MHz.
(§3) All test articles were used as supplied and diluted in the selected medium (physiologic solution or human plasma) by weighting the required amount of paramagnetic chelated complex to get a 5 or 10 mM starting solution.
(§4) Five different concentration samples (0.1, 0.25, 0.5, 0.75 and 1 mM) for each medium have been prepared by further dilution of the starting 5 or 10 mM solution.
(§5) Relaxivity measurements were performed at 0.47 T and 1.41 T at a preset temperature sample of 37° C., kept constant by means of a thermostatic bath connected to the sample holder of the spectrometer. The five sample solutions have been preliminary pre-heated at 37° C. in an external thermostatic bath and then left 10 minutes inside the internal bath to assure the stabilization of the temperature. Longitudinal relaxation time T1 was measured by means of a standard inversion recovery sequence, where the inversion time (TI) was varied from 10 ms to at least 5 times T1 in 15 steps. Statistical analysis (mono-exponential fitting for T1 measurement, linear fitting for the evaluation of longitudinal relaxivity) was performed by Mathematica® (Wolfram, USA). Errors on the estimated parameters were evaluated by the fitting procedure.

[2] = Relaxivity r1p in physiologic solution (saline), 37° C.; type: physicochemical; conditions: for r1p at 0.47 T 37° C., saline: 0.47 T (20 MHz); for r1p at 1.41 T 37° C., saline: 1.41 T (60 MHz)
Method: as §1, §2, §3, §4, §5

| SMILES | r1p at 0.47 T 37° C., human plasma [1] [mM⁻¹ s⁻¹] | r1p at 1.41 T 37° C., human plasma [1] [mM⁻¹ s⁻¹] | r1p at 0.47 T 37° C., saline [2] [mM⁻¹ s⁻¹] | r1p at 1.41 T 37° C., saline [2] [mM⁻¹ s⁻¹] |
| --- | --- | --- | --- | --- |
| CC(O)CN1CCN(CC(=O)O)CCN(CC(=O)O)CCN(CC(=O)O)CC1 (centres unmarked) [ProHance ®, Gd-HPDO3A, reference compound] | 4.9 | 4.15 | 3.5 | 3.1 |
| O=C(O)CN1CCN(CC(=O)O)CCN(CC(O)CN(CCOCCO)CCOCCO)CCN(CC(=O)O)CC1 (centres unmarked) [Chelate Complex 14] | 8.8 | 8.0 | 6.9 | 6.5 |
| O=C([O-])CN1CCN(CC(=O)O)CCN(CC(=O)O)CCN(CC(O)CNC(CCc2ccccc2)P(=O)(O)[O+]=[Na])CC1 (centres unmarked) [Chelate Complex 6] | 13.8 | 11.9 | 8.3 | 8.2 |
| O=C(O)CN1CCN(CC(=O)O)CCN(CC(O)CN2CC(CO)(CO)C(O)C(CO)(CO)C2)CCN(CC(=O)O)CC1 (centres unmarked) [Chelate Complex 5] | 9.6 | 8.9 | 7.7 | 7.7 |
| CCOP(=O)(O)CN(Cc1ccccc1)CC(O)CN1CCN(CC(=O)O)CCN(CC(=O)O)CCN(CC(=O)O)CC1 (centres unmarked) [Chelate Complex 8] | 10.2 | 9.0 | 7.4 | 7.3 |

Continued, values first:

| r1p at 0.47 T 37° C., human plasma [1] [mM⁻¹ s⁻¹] | r1p at 1.41 T 37° C., human plasma [1] [mM⁻¹ s⁻¹] | r1p at 0.47 T 37° C., saline [2] [mM⁻¹ s⁻¹] | r1p at 1.41 T 37° C., saline [2] [mM⁻¹ s⁻¹] | SMILES |
| --- | --- | --- | --- | --- |
| 6.25 | 5.3 | 4.3 | 3.8 | NCC(O)CN1CCN(CC(=O)O)CCN(CC(=O)O)CCN(CC(=O)O)CC1 (centres unmarked) [Comparative 1, reference compound] |
| 4.5 | 3.6 | 3.6 | 3.2 | O=C(O)CN1CCN(CC(=O)O)CCN(CC(=O)O)CCN(CC(=O)O)CC1 [Doratem ®, Gd-DOTA, reference compound] |
| 8.5 | 7.5 | 7.0 | 6.5 | O=C(O)CN1CCN(CC(=O)O)CCN(CC(O)CNCP(=O)(O)O)CCN(CC(=O)O)CC1 (centres unmarked) [Chelate Complex 2] |
| 7.5 | 7.1 | 5.8 | 5.9 | O=C(O)CN1CCN(CC(=O)O)CCN(CC(O)CN(CC(=O)O)C(CO)CO)CCN(CC(=O)O)CC1 (centres unmarked) [Chelate Complex 13] |
| 9.1 | 8.05 | 6.5 | 6.1 | O=C(O)CN1CCN(CC(=O)O)CCN(CC(O)CN(CC(=O)O)C2CCCCC2)CCN(CC(=O)O)CC1 (centres unmarked) [Chelate Complex 19] |
| 8.5 | 8.3 | 6.1 | 6.1 | CN(CC(O)CN1CCN(CC(=O)O)CCN(CC(=O)O)CCN(CC(=O)O)CC1)CC(O)C(O)C(O)C(O)CO (centres unmarked) [Chelate Complex 21] |
